# Data as given in PubChem BioAssay AID1963827 (Molecular Pharmacology Branch, DTP, NCI, 2024).
# System: 994946-033-R-J1-PDC complex spheroid viability
# Experiment: Anticancer human tumor 994946-033-R-J1-PDC patient-derived melanoma cell line growth inhibition [POLQ]
# Settings: for IC50: curve of first compound; for viability, T/C: stronger effect = lower value
# How it was run: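 Growth inhibition in 3D: complex spheroids (tumor PDC, HUVEC, MSC) treated with POLQ inhibitor combinations; where Cmax unknown, highest tested concentration 10 microM, except SN-38 at 1 microM.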
# [1] = second compound 0.0316 µM, first compound 0.0316 µM
# [2] = second compound 0.0316 µM, first compound 0.1 µM
# [3] = second compound 0.0316 µM, first compound 0.316 µM
# [4] = second compound 0.0316 µM, first compound 1 µM
# [5] = second compound 0.0316 µM, first compound 3.16 µM
# [6] = second compound 0.0316 µM, first compound 10 µM
# [7] = second compound 0.1 µM, first compound 0.0316 µM
# [8] = second compound 0.1 µM, first compound 0.1 µM
# [9] = second compound 0.1 µM, first compound 0.316 µM
# [10] = second compound 0.1 µM, first compound 1 µM
# [11] = second compound 0.1 µM, first compound 3.16 µM
# [12] = second compound 0.1 µM, first compound 10 µM
# [13] = second compound 0.316 µM, first compound 0.0316 µM
# [14] = second compound 0.316 µM, first compound 0.1 µM
# [15] = second compound 0.316 µM, first compound 0.316 µM
# [16] = second compound 0.316 µM, first compound 1 µM
# [17] = second compound 0.316 µM, first compound 3.16 µM
# [18] = second compound 0.316 µM, first compound 10 µM
# [19] = second compound 1 µM, first compound 0.0316 µM
# [20] = second compound 1 µM, first compound 0.1 µM
# [21] = second compound 1 µM, first compound 0.316 µM
# [22] = second compound 1 µM, first compound 1 µM
# [23] = second compound 1 µM, first compound 3.16 µM
# [24] = second compound 1 µM, first compound 10 µM
# [25] = second compound 3.16 µM, first compound 0.0316 µM
# [26] = second compound 3.16 µM, first compound 0.1 µM
# [27] = second compound 3.16 µM, first compound 0.316 µM
# [28] = second compound 3.16 µM, first compound 1 µM
# [29] = second compound 3.16 µM, first compound 3.16 µM
# [30] = second compound 3.16 µM, first compound 10 µM
# [31] = second compound 10 µM, first compound 0.0316 µM
# [32] = second compound 10 µM, first compound 0.1 µM
# [33] = second compound 10 µM, first compound 0.316 µM
# [34] = second compound 10 µM, first compound 1 µM
# [35] = second compound 10 µM, first compound 3.16 µM
# [36] = second compound 10 µM, first compound 10 µM
# 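Further: spheroids exposed to drugs for 7 days.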
# 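Wherever viability, T/C is given: 100% = DMSO vehicle treated spheroids.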
smiles,measurement,setting,value
CCc1cc2c(N3CCc4c(cc(Cn5ccnc5)cc4-c4cn(C)nc4C(F)(F)F)C3=O)ccnc2c(OC)n1 + Nc1ccc(C#CCN(C(=O)Cc2ncc(C(F)(F)F)cc2C(F)(F)F)c2ccc(F)cc2)nn1,IC50,second compound 0.0316 µM,> 10 µM
same,IC50,second compound 0.1 µM,> 10 µM
same,IC50,second compound 0.316 µM,> 10 µM
same,IC50,second compound 1 µM,> 10 µM
same,IC50,second compound 3.16 µM,> 10 µM
same,IC50,second compound 10 µM,> 10 µM
same,"viability, T/C",[1],51.5%
same,"viability, T/C",[2],79.4%
same,"viability, T/C",[3],82%
same,"viability, T/C",[4],88.2%
same,"viability, T/C",[5],79.6%
same,"viability, T/C",[6],79%
same,"viability, T/C",[7],101%
same,"viability, T/C",[8],87.7%
same,"viability, T/C",[9],88.6%
same,"viability, T/C",[10],76.8%
same,"viability, T/C",[11],73.8%
same,"viability, T/C",[12],81.4%
same,"viability, T/C",[13],89.3%
same,"viability, T/C",[14],97.6%
same,"viability, T/C",[15],78.4%
same,"viability, T/C",[16],70.6%
same,"viability, T/C",[17],79.8%
same,"viability, T/C",[18],63.9%
same,"viability, T/C",[19],98.9%
same,"viability, T/C",[20],62.2%
same,"viability, T/C",[21],85.1%
same,"viability, T/C",[22],75%
same,"viability, T/C",[23],86.7%
same,"viability, T/C",[24],87.4%
same,"viability, T/C",[25],75.9%
same,"viability, T/C",[26],78%
same,"viability, T/C",[27],66.9%
same,"viability, T/C",[28],79.4%
same,"viability, T/C",[29],89.2%
same,"viability, T/C",[30],66.7%
same,"viability, T/C",[31],101%
same,"viability, T/C",[32],98.2%
same,"viability, T/C",[33],102%
same,"viability, T/C",[34],89.8%
same,"viability, T/C",[35],80.8%
same,"viability, T/C",[36],70.8%
CCc1cc2c(N3CCc4c(cc(Cn5ccnc5)cc4-c4cn(C)nc4C(F)(F)F)C3=O)cc(C)nc2c(OC)n1 + Cc1cccc(N(C)C(=O)C2C(O)CCN2c2nc(C)cc(C(F)(F)F)c2C#N)c1,IC50,second compound 0.0316 µM,> 10 µM
same,IC50,second compound 0.1 µM,> 10 µM
same,IC50,second compound 0.316 µM,> 10 µM
same,IC50,second compound 1 µM,6.22 µM
same,IC50,second compound 3.16 µM,> 10 µM
same,IC50,second compound 10 µM,> 10 µM
same,"viability, T/C",[1],74.7%
same,"viability, T/C",[2],61.9%
same,"viability, T/C",[3],94.6%
same,"viability, T/C",[4],79.2%
same,"viability, T/C",[5],68.4%
same,"viability, T/C",[6],69.9%
same,"viability, T/C",[7],73%
same,"viability, T/C",[8],84.7%
same,"viability, T/C",[9],90.7%
same,"viability, T/C",[10],88.8%
same,"viability, T/C",[11],90.5%
same,"viability, T/C",[12],77.6%
same,"viability, T/C",[13],63%
same,"viability, T/C",[14],78.5%
same,"viability, T/C",[15],60.2%
same,"viability, T/C",[16],66.5%
same,"viability, T/C",[17],61.3%
same,"viability, T/C",[18],53.1%
same,"viability, T/C",[19],106%
same,"viability, T/C",[20],76.1%
same,"viability, T/C",[21],78.8%
same,"viability, T/C",[22],81.4%
same,"viability, T/C",[23],69.6%
same,"viability, T/C",[24],38%
same,"viability, T/C",[25],76.5%
same,"viability, T/C",[26],83.3%
same,"viability, T/C",[27],60.4%
same,"viability, T/C",[28],74.3%
same,"viability, T/C",[29],66.8%
same,"viability, T/C",[30],67.6%
same,"viability, T/C",[31],76%
same,"viability, T/C",[32],73.2%
same,"viability, T/C",[33],68.1%
same,"viability, T/C",[34],89.2%
same,"viability, T/C",[35],73.8%
same,"viability, T/C",[36],64.1%
COc1cccc(OCCCN)c1-c1cc(Nc2cnc(C#N)cn2)n[nH]1 + COC1C(OC(N)=O)C(O)C(Oc2ccc3c(O)c(NC(=O)c4ccc(O)c(CC=C(C)C)c4)c(=O)oc3c2C)OC1(C)C,IC50,second compound 0.0316 µM,0.0188 µM
same,IC50,second compound 0.1 µM,0.0143 µM
same,IC50,second compound 0.316 µM,0.0121 µM
same,IC50,second compound 1 µM,0.00563 µM
same,IC50,second compound 3.16 µM,0.0172 µM
same,IC50,second compound 10 µM,0.00449 µM
same,"viability, T/C","second compound 0.0316 µM, first compound 0.00316 µM",73.9%
same,"viability, T/C","second compound 0.0316 µM, first compound 0.01 µM",69.9%
same,"viability, T/C",[1],32.6%
same,"viability, T/C",[2],24.9%
same,"viability, T/C",[3],13.1%
same,"viability, T/C",[4],9.24%
same,"viability, T/C","second compound 0.1 µM, first compound 0.00316 µM",84.2%
same,"viability, T/C","second compound 0.1 µM, first compound 0.01 µM",60.2%
same,"viability, T/C",[7],27.5%
same,"viability, T/C",[8],14.4%
same,"viability, T/C",[9],22%
same,"viability, T/C",[10],11.6%
same,"viability, T/C","second compound 0.316 µM, first compound 0.00316 µM",84.3%
same,"viability, T/C","second compound 0.316 µM, first compound 0.01 µM",52.7%
same,"viability, T/C",[13],34.9%
same,"viability, T/C",[14],11%
same,"viability, T/C",[15],26.5%
same,"viability, T/C",[16],18.1%
same,"viability, T/C","second compound 1 µM, first compound 0.00316 µM",57.6%
same,"viability, T/C","second compound 1 µM, first compound 0.01 µM",42.3%
same,"viability, T/C",[19],25.7%
same,"viability, T/C",[20],17.3%
same,"viability, T/C",[21],30.8%
same,"viability, T/C",[22],13.8%
same,"viability, T/C","second compound 3.16 µM, first compound 0.00316 µM",85.8%
same,"viability, T/C","second compound 3.16 µM, first compound 0.01 µM",54.5%
same,"viability, T/C",[25],38.7%
same,"viability, T/C",[26],32.7%
same,"viability, T/C",[27],19.7%
same,"viability, T/C",[28],9.09%
same,"viability, T/C","second compound 10 µM, first compound 0.00316 µM",56.9%
same,"viability, T/C","second compound 10 µM, first compound 0.01 µM",34.2%
same,"viability, T/C",[31],18.9%
same,"viability, T/C",[32],21.2%
same,"viability, T/C",[33],20.2%
same,"viability, T/C",[34],17.5%
